Where two headings read alike, the source gives them in different places.
Experiments:
[1] = tested on: IFVA/Weiss/43; test: cytopathic effect (CPE) antiviral test in MDCK cells, IFVA/Weiss/43; type: cell-based, influenza virus
[2] = tested on: IFVA/Mal/302/54; test: cytopathic effect (CPE) antiviral test in MDCK cells, IFVA/Mal/302/54; type: cell-based, influenza virus
[3] = unidentified influenza virus, MDCK, 120 h, read-out: EC50(IFVA/Weiss/43), MDCK cells, CPE method, CCK-8 cell viability, 5 days
[4] = unidentified influenza virus, MDCK, 120 h, read-out: EC50(IFVA/Mal/302/54), MDCK cells, CPE method, CCK-8 cell viability, 5 days
[5] = read-out: EC50(IFVA/Weiss/43), MDCK cells, CPE method, CCK-8 cell viability, 5 days
[6] = read-out: EC50(IFVA/Mal/302/54), MDCK cells, CPE method, CCK-8 cell viability, 5 days

Structure (SMILES): O=C(Nc1ccc2oc(-c3ccnc(C(=O)N4CCN(C(c5ccccc5)c5nnn(C(F)F)n5)CC4)c3)nc2c1)[C@@H]1CC1(F)F (mixture of isomers) [Compound 29, (1S)—N-(2-(2-(4-((2-(difluoromethyl)-2H-tetrazol-5-yl)(phenyl)methyl)piperazine-1-carbonyl)pyridin-4-yl)benzo[d]oxazol-5-yl)-2,2-difluorocyclopropane-1-carboxamide]
- EC50 [1, 3]: 4 nM
- EC50 [2, 4]: 22 nM

Structure (SMILES): O=C(Nc1ccc2oc(-c3ccnc(C(=O)N4CCN(C(c5ccccc5)c5nnn(C(F)F)n5)CC4)c3)nc2c1)[C@@H]1C[C@@H]1F (mixture of isomers) [Compound 31, (1S,2S)-2-fluoro-N-(2-(2-(4-((2-difluoromethyl-2H-tetrazol-5-yl)(phenyl)methyl)piperazine-1-carbonyl)pyridin-4-yl)benzo[d]oxazol-5-yl)cyclopropane-1-carboxamide]
- EC50 [1, 3]: 2 nM
- EC50 [2, 4]: 7 nM

Structure (SMILES): CC(=O)Nc1ccc2oc(-c3ccnc(C(=O)N4CCN(C(c5ccccc5)c5nnn(C(F)F)n5)CC4)c3F)nc2c1 (racemic) [Compound 79, (R/S)—N-(2-(2-(4-((2-(difluoromethyl)-2H-tetrazol-5-yl)(phenyl)methyl)piperazine-1-carbonyl)-3-fluoropyridin-4-yl)benzo[d]oxazol-5-yl)acetamide]
- EC50 [1, 3]: 7 nM
- EC50 [2, 4]: 13 nM

Structure (SMILES): Cn1ccnc1-c1ccc2oc(-c3ccnc(C(=O)N4CCN(C(c5ccccc5)c5nnn(C(F)F)n5)CC4)c3)nc2c1 (racemic) [Compound 88, (R/S)-(4-((2-(difluoromethyl)-2H-tetrazol-5-yl)(phenyl)methyl)piperazin-1-yl)(4-(5-(1-methyl-1H-imidazol-2-yl)benzo[d]oxazol-2-yl)pyridin-2-yl)methanone]
- EC50 [1, 3]: 2 nM
- EC50 [2, 4]: 2 nM

Structure (SMILES): CC(=O)Nc1ccc2nc(-c3ccnc(C(=O)N4CCN(C(c5ccccc5)c5nnn(C(F)F)n5)CC4)c3)oc2c1 (racemic) [Compound 90, (R/S)—N-(2-(2-(4-((2-(difluoromethyl)-2H-tetrazol-5-yl)(phenyl)methyl)piperazine-1-carbonyl)pyridin-4-yl)benzo[d]oxazol-6-yl)acetamide]
- EC50 [1, 3]: 28 nM
- EC50 [2, 4]: 18 nM

Structure (SMILES): CCC(=O)Nc1ccc2oc(-c3ccnc(C(=O)N4CCN(C(c5ccccc5)c5nnn(C(F)F)n5)CC4)c3)nc2c1 (racemic) [Compound 96, (R/S)—N-(2-(2-(4-((2-(difluoromethyl)-2H-tetrazol-5-yl)(phenyl)methyl)piperazine-1-carbonyl)pyridin-4-yl)benzo[d]oxazol-5-yl)propionamide]
- EC50 [1, 3]: 12 nM
- EC50 [2, 4]: 7 nM

Structure (SMILES): CC(C)C(=O)Nc1ccc2oc(-c3ccnc(C(=O)N4CCN(C(c5ccccc5)c5nnn(C(F)F)n5)CC4)c3)nc2c1 (racemic) [Compound 97, (R/S)—N-(2-(2-(4-((2-(difluoromethyl)-2H-tetrazol-5-yl)(phenyl)methyl)piperazine-1-carbonyl)pyridin-4-yl)benzo[d]oxazol-5-yl)isobutyramide]
- EC50 [1, 3]: 7 nM
- EC50 [2, 4]: 6 nM

Structure (SMILES): O=C(c1cc(-c2nc3cc(-c4cscn4)ccc3o2)ccn1)N1CCN(C(c2ccccc2)c2nnn(C(F)F)n2)CC1 (racemic) [Compound 110, (R/S)-(4-((2-(difluoromethyl)-2H-tetrazol-5-yl)(phenyl)methyl)piperazin-1-yl)(4-(5-(thiazol-4-yl)benzo[d]oxazol-2-yl)pyridin-2-yl)methanone]
- EC50 [1, 3]: 3 nM
- EC50 [2, 4]: 3 nM

Structure (SMILES): O=C(Nc1ccc2oc(-c3ccnc(C(=O)N4CCN(C(c5ccccc5)c5nnn(C(F)F)n5)CC4)c3)nc2c1)C1CC1 (racemic) [Compound 196, (R/S)—N-(2-(2-(4-((2-(difluoromethyl)-2H-tetrazol-5-yl)(phenyl)methyl)piperazine-1-carbonyl)pyridin-4-yl)benzo[d]oxazol-5-yl)cyclopropanecarboxamide]
- EC50 [1, 3]: 6 nM
- EC50 [2, 4]: 8 nM

Structure (SMILES): CC(=O)Nc1ccc2oc(-c3ccnc(C(=O)N4CCN(C(c5ccccc5)c5nnn(C)n5)[C@H](C)C4)c3)nc2c1 (single isomer, unassigned) [Compound 16b]
- EC50 [1, 3]: > 10000 nM
- EC50 [2, 4]: > 10000 nM

Structure (SMILES): O=C(Nc1ccc2oc(-c3ccnc(C(=O)N4CCN(C(c5ccccc5)c5nnn(C(F)F)n5)CC4)c3)nc2c1)C1CC1(F)F (single isomer, unassigned) [Compound 82, (R/S)—N-(2-(2-(4-((R/S)-(2-(difluoromethyl)-2H-tetrazol-5-yl)(phenyl)methyl)piperazine-1-carbonyl)pyridin-4-yl)benzo[d]oxazol-5-yl)-2,2-difluorocyclopropane-1-carboxamide]
- EC50 [1, 3]: 7 nM
- EC50 [2, 4]: 11 nM

Structure (SMILES): Cn1nnc(C(c2ccccc2)N2CCN(C(=O)c3cc(-c4nc5cc(OC6CCOC6)ccc5o4)ccn3)CC2)n1 (stereo in doubt) [Compound 43, (4-((2-methyl-2H-tetrazol-5-yl)(phenyl)methyl)piperazin-1-yl)(4-(5-(((R)-tetrahydrofuran-3-yl)oxy)benzo[d]oxazol-2-yl)pyridin-2-yl)methanone]
- EC50 [1, 5]: 57 nM
- EC50 [2, 6]: 10 nM

Structure (SMILES): CC(=O)Nc1ccc2oc(-c3ccnc(C(=O)N4CC5CCC(C4)N5C(c4ccccc4)c4nnn(C)n4)c3)nc2c1 (stereo not drawn) [Compound 1, N-(2-(2-(8-((2-methyl-2H-tetrazol-5-yl)(phenyl)methyl)-3,8-diazabicyclo[3.2.1]octane-3-carbonyl)pyridin-4-yl)benzo[d]oxazol-5-yl)acetamide]
- EC50 [1, 3]: 480 nM
- EC50 [2, 4]: 573 nM

Structure (SMILES): Cn1nnc(C(c2ccccc2)N2CCN(C(=O)c3cc(-c4nc5cc(N6CCCC6=O)ccc5o4)ccn3)CC2)n1 (stereo not drawn) [Compound 2, 1-(2-(2-(4-((2-methyl-2H-tetrazol-5-yl)(phenyl)methyl)piperazine-1-carbonyl)pyridin-4-yl)benzo[d]oxazol-5-yl)pyrrolidin-2-one]
- EC50 [1, 3]: < 5 nM
- EC50 [2, 4]: 26 nM

Structure (SMILES): CC(=O)Nc1ccc2oc(-c3ccnc(C(=O)N4CC5CN(C(c6ccccc6)c6nnn(C)n6)CC5C4)c3)nc2c1 (stereo not drawn) [Compound 3, N-(2-(2-(5-((2-methyl-2H-tetrazol-5-yl)(phenyl)methyl)octahydropyrrolo[3,4-c]pyrrole-2-carbonyl)pyridin-4-yl)benzo[d]oxazol-5-yl)acetamide]
- EC50 [1, 3]: 780 nM
- EC50 [2, 4]: 1170 nM

Structure (SMILES): CC(=O)Nc1ccc2oc(-c3ccnc(C(=O)N4CCN(C(c5ccccc5)c5nnn(C)n5)CC45CC5)c3)nc2c1 (stereo not drawn) [Compound 5, N-(2-(2-(7-((2-methyl-2H-tetrazol-5-yl)(phenyl)methyl)-4,7-diazaspiro[2.5]octane-4-carbonyl)pyridin-4-yl)benzo[d]oxazol-5-yl)acetamide]
- EC50 [1, 3]: 16 nM
- EC50 [2, 4]: 24 nM

Structure (SMILES): CC(=O)Nc1ccc2oc(-c3ccnc(C(=O)N4C[C@H]5C[C@@H]4CN5C(c4ccccc4)c4nnn(C)n4)c3)nc2c1 (stereo partly drawn) [Compound 6a, N-(2-(2-((1R,4R)-5-((2-methyl-2H-tetrazol-5-yl)(phenyl)methyl)-2,5-diazabicyclo[2.2.1]heptane-2-carbonyl)pyridin-4-yl)benzo[d]oxazol-5-yl)acetamide]
- EC50 [1, 3]: > 7870 nM
- EC50 [2, 4]: > 10000 nM

Structure (SMILES): CC(=O)Nc1ccc2oc(-c3ccnc(C(=O)N4C[C@H]5C[C@@H]4CN5C(c4ccccc4)c4nnn(C)n4)c3)nc2c1 (stereo partly drawn) [Compound 6b, N-(2-(2-((1R,4R)-5-((2-methyl-2H-tetrazol-5-yl)(phenyl)methyl)-2,5-diazabicyclo[2.2.1]heptane-2-carbonyl)pyridin-4-yl)benzo[d]oxazol-5-yl)acetamide]
- EC50 [1, 5]: > 10000 nM
- EC50 [2, 6]: > 10000 nM

— patent publication US20230079045A1 (priority 2019, published 2023)
